Results as given in patent publication US12060408B2, “Screening assays, modulators and modulation of activation of Receptor for Advanced Glycation End-products (RAGE)” (Monash University, priority 2017, dated 2024).

Columns and labels:
PMAEC = test: Generation of superoxide and additional markers of oxidative stress (DCFH, Rac-1 G-LISA, oxidized glutathione) in PMAEC; type: cell-based, mouse
Experimental: Generation of Superoxide and Additional Markers of Oxidative Stress
To quantitate superoxide production induced by Ang II, a vessel chamber assay was used to measure total cytoplasmic and mitochondrial superoxide production in real time in PMAEC from AGER KO and C57Bl6 aortae. PMAEC were grown on collagen coated cover slips and mounted into a sealed glass chamber when they were 80% confluent. The chambers were perfused with Krebs buffer for an hour with fluorescent readings taken every 10 minutes to establish baseline readings. The cells were then perfused with 1 μM Ang II for 60 minutes and fluorescent readings were taken every 1 minute for a further 10 minutes. Fluorescence readings were expressed as change (Δ) in fluorescence arbitrary units from baseline. Levels of the activated NADPH oxidase subunit, Rac-1 activation was also measured in cell lysates after exposure to Ang II using a Rac-1 G-LISA activation assay (Cytoskeleton), as per manufacturers' instructions. Additional markers of oxidative stress were also assayed including levels of oxidized glutathione, (Cayman Chemical Company, US), performed as per manufacturer's instructions.

apoE KO mice = test: Aortic plaque area quantitation (Sudan IV staining of aortic arch); type: in vivo, mouse
Source text: C57bl6 mice, AGER knockout (KO) mice, apoE KO mice, AGER/apoE double knockout (DKO), Ace2/apoE DKO and AGER/Ace2/apoE triple knockout (TKO) mice were sourced and generated in-house at the AMPREP animal house. All mice were bred on a C57bl6 background. For experimental studies, male mice aged 6-8 weeks and weighing between 20-25 g were used, with at least 8 animals per group for in vivo studies and n=6/group for ex vivo studies. Throughout the study animals were given access to mouse chow and water ad libitum. All experiments were approved by the animal ethics committee of the Alfred Medical Research Precinct and conducted in accordance with the Guide for the Care and Use of Laboratory Animals published by the US National Institutes of Health (NIH Publication No. 85-23, revised 1996).
Aortic Plaque Area Quantitation Method
Aortic arches were removed from mice, cleaned of excess fat, placed in 10% neutral buffered formalin and subsequently stained with Sudan IV-Herxheimer's solution (0.5% w/vol; Gurr, BDH Limited, Poole, UK). Aortae were then dissected longitudinally, and pinned flat onto a wax pad. Plaque accumulation across the aortic arch was quantitated as the percentage area stained red.
Angiotensin Infusion Model […]

AT1 = target: T1, AT1 (Homo sapiens, UniProt P30556); test: Classical GPCR signalling (IP-one HTRF, EGR1) in AT1R-CHO cells; type: cell-based; parameters: expressed in transfected cells; details: 1 μM
T1 sequence (P30556 1-359): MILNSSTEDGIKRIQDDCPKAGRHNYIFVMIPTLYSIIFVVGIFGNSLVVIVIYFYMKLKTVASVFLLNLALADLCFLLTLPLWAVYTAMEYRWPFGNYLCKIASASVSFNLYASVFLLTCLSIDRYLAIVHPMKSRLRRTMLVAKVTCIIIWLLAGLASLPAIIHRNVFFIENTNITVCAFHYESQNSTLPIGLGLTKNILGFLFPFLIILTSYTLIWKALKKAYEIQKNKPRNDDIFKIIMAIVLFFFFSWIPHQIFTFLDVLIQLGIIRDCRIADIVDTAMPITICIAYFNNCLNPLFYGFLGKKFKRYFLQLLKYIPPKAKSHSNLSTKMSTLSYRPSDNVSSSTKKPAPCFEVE
Experimental: Generation of Transgenic Chinese Hamster Ovary Cells
100 ng of AT1R-Rluc8 construct was transfected into CHO cells using Lipofectamine 2000 (Thermo). Stable transfectants were selected using G418. AT1R—CHO were then transiently transfected with RAGE constructs using Lipofectamine 2000 (Invitrogen) and incubated for 16 h.
Classical GPCR Signalling

[1] = Circulating concentration of RAGE ligands (S100A8/A9, AGEs, methylglyoxal); type: in vivo, mouse; details: four-week infusion 1 μg/kg/min
Experimental: Circulating Concentration of RAGE Ligands
Changes in circulating levels of RAGE ligands were assessed in animal models. S100A8/A9 levels were estimated by ELISA (Immundiagnostik, Germany) performed according to the manufacturer's instructions. Plasma AGEs were measured by in-house ELISA. Plasma methylglyoxal, a reactive precursor of AGEs, was measured by HPLC.

[2] = Systolic BP measurement by tail-cuff plethysmography; type: in vivo, mouse; details: four-week infusion 1 μg/kg/min, both apoE KO and AGER/apoE DKO mice
Experimental: Systolic blood pressure was measured by tail-cuff plethysmography in conscious, pre-warmed mice using a computerized, non-invasive, tail-cuff system (Kent Scientific, USA). Animals were habituated to the device before measuring the pressures to ensure accurate measurements.

aortic endothelium = test: Adherence of labelled leukocytes to aortae (dynamic flow assay); parameters: species or system mouse; details: ex vivo
Experimental: Adherence of Labelled Leukocytes to Aortae
After 1 week of a low sodium or normal sodium diet, apoE KO and AGER/apoE DKO animals were humanely killed and aortae were isolated, cleaned of fat and mounted in a vessel chamber primed with Krebs buffer and maintained at physiological pH by infusing carbogen gas (95% O2; 5% CO2) through the buffer at 37° C., as previously described. Whole blood labelled with DilC18 (1:1000) was then perfused through the aorta at 0.12 ml/min. As a positive control, vessels (n=6/group) were pre-treated with TNFα (4 ng/ml) for 4 hrs at 37° C. or Ang II (1 μM). Images and videos of vessel wall-cell interactions were acquired using a fluorescence microscope (Zeiss Discovery.V20), coupled to a digital camera ([…] ORCA-ER) and analysed with AxioVison software. Two to three frames were taken at each time point and the number of adherent cells per frame recorded.
Ex Vivo Studies in Isolated Aortae
Aortae were isolated from apoE KO and AGER/apoE DKO mice, divided and placed in Krebs buffer and maintained at physiological pH by infusing carbogen gas (95% O2; 5% CO2) through the buffer at 37° C. Vessels (n=6/group) were then treated with Ang II (1 μM) for 4 hours. […] Images and videos of vessel wall-cell interactions were observed using a fluorescence microscope (Zeiss Discovery.V20), coupled to a digital camera ([…] ORCA-ER) and analysed with AxioVison software.

IQGAP-1 = target: T2, IQGAP-1 (Cricetulus griseus, UniProt A0A8C2MPD4); test: Pull down from cytosolic components on a column coated with S391A-RAGE362-404; type: binding; details: column coated with the peptide
T2 construct: 5×10^7 CHO cells stably transfected with Hs-AT1R were lysed using RIPA buffer; endogenous in cells; host or cells: lysate of CHO cells stably transfected with Hs-AT1R
Source text: FIG. 11C. Pull down of a protein identified as IQGAP-1 from other cytosolic components using a column coated with the mutant RAGE cytosolic tail (S391A-RAGE362-404), as well as IQGAP-1 associated proteins, ezrin/radixin/moesin and the GPCR olfactory receptor 2T2.

T2 sequence (A0A8C2MPD4 1-1657): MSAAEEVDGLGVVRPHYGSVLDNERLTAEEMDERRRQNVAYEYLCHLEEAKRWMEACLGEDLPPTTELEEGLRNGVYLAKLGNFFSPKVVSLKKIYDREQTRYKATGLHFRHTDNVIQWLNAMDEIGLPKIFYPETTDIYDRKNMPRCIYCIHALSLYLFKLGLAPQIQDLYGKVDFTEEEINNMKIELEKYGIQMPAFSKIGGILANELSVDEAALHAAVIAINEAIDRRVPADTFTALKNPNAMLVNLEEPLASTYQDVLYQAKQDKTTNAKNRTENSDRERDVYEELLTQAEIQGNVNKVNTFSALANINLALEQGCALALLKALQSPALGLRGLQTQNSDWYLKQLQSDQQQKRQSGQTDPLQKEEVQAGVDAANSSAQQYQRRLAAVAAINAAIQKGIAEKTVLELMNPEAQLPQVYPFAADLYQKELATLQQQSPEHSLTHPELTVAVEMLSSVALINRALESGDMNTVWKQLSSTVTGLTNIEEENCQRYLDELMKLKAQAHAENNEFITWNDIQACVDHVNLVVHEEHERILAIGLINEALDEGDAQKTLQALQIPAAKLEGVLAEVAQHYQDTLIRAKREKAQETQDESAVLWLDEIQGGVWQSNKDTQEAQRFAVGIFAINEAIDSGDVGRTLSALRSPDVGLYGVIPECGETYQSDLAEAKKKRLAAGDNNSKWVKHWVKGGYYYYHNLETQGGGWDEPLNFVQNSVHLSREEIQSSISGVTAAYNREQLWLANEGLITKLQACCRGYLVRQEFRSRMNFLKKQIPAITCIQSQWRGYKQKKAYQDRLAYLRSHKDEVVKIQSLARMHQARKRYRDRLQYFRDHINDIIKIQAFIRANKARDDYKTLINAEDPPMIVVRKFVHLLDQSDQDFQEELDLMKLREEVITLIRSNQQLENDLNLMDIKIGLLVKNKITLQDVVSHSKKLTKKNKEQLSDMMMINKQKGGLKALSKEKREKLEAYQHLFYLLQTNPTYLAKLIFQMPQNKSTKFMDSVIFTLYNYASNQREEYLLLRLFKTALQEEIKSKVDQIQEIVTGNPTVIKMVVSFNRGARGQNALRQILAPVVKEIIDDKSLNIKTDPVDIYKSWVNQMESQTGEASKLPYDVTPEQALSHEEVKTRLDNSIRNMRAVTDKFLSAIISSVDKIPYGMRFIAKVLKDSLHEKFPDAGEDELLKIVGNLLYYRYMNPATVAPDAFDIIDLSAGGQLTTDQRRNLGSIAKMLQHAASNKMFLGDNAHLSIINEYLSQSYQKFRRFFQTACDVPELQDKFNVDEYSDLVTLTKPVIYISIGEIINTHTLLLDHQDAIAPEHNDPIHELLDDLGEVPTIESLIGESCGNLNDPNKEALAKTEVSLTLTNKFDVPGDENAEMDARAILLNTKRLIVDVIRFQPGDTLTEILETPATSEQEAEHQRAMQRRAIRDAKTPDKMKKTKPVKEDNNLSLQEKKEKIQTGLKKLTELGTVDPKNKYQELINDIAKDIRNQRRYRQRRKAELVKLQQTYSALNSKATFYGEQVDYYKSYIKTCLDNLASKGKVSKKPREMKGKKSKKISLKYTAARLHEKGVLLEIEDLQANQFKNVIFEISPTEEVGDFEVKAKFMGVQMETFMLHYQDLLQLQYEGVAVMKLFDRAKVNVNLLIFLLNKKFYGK

Substance	ROS production and oxidative stress (PMAEC; PMAEC from AGER KO mice)	production of ROS and other markers of oxidative stress (activated rac-1, oxidised glutathione) (PMAEC; PMAEC from C57bl6 mice, 1 μM)	atherogenesis (plaque area) (apoE KO mice; AGER/apoE DKO mice, four-week infusion 1 μg/kg/min)	atherogenesis (percentage of the aortic arch surface area staining positive to Sudan IV) (apoE KO mice; apoE KO mice, four-week infusion 1 μg/kg/min vs untreated)	classical responsiveness: inositol phosphate synthesis and EGR1 induction (AT1)	circulating levels of RAGE ligands ([1]; AGER/apoE DKO mice)	circulating levels of RAGE ligands (S100A8/A9, AGEs, dicarbonyl precursors) ([1]; apoE KO mice)	systolic blood pressure [2]	endothelial adhesiveness of primed leucocytes (aortic endothelium; aortae from AGER/apoE DKO mice, 1 μM)	number of adherent leukocytes (aortic endothelium; aortae from apoE KO mice, 1 μM vs untreated)	pull down of IQGAP-1 (and ezrin/radixin/moesin, olfactory receptor 2T2) from cytosolic components (IQGAP-1)
angiotensin II (DRVYIHPF) [Ang II, cognate ligand of AT1R]	does not lead to	rapid increase	prevents the increase in atherogenesis	increases atherogenesis	induction	preventing	increases	increased to a similar extent	prevents	increased number of adherent leukocytes	
L362WQRRQRRGEERKAPENQEEEEERAELNQAEEPEAGESSTGGP404 (LWQRRQRRGEERKAPENQEEEEERAELNQAEEPEAGESSTGGP; listed as Homo sapiens) [S391A-RAGE362-404, S391A mutant RAGE cytosolic tail; non-functional substitute for RAGE]											Pull down
